Columns and labels:
Format in all cases: in vivo
[1] = test system: barnyardgrass (Echinochloa crus-galli); experiment: Test G Pre-Emergence Protocol; details: Echinochloa crus-galli, pre-emergence, 312 h, evaluated after 13 days; for pest or weed control at 15.625 g/ha: 15.625 g ai/ha; for pest or weed control at 15.625 g/ha / pest or weed control at 250 g/ha: read-out: Barnyardgrass damage rating (100=total damage to plant; 0=no damage to plant); for pest or weed control at 62.5 g/ha: 62.5 g ai/ha, 100=total damage to plant, 0=no damage to plant, read-out: Barnyardgrass damage rating; for pest or weed control at 250 g/ha: 250 g ai/ha
Outline: (§1)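 Pre-emergence spray, 15.625/62.5/250 g/ha, vehicle acetone:water 50:50 + 0.5% Tween 20, applied 1 d after sowing. Glasshouse 24/16° C, 14 h light, 65% RH, watered twice daily. Visual damage rating at 13 d, 0–100 scale.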

corn (Zea mays) [2] = experiment: Test G Pre-Emergence Protocol; details: Zea mays, pre-emergence, 312 h, evaluated after 13 days; for plant injury at 15.625 g/ha: 15.625 g ai/ha; for plant injury at 15.625 g/ha / plant injury at 250 g/ha: read-out: Corn damage rating (100=total damage to plant; 0=no damage to plant); for plant injury at 62.5 g/ha: 62.5 g ai/ha, 100=total damage to plant, 0=no damage to plant, read-out: Corn damage rating; for plant injury at 250 g/ha: 250 g ai/ha
Outline: as §1

[3] = test system: giant foxtail (Setaria faberi); experiment: Test G Pre-Emergence Protocol; details: Setaria faberi, pre-emergence, 312 h, evaluated after 13 days; for pest or weed control at 15.625 g/ha: 15.625 g ai/ha; for pest or weed control at 15.625 g/ha / pest or weed control at 250 g/ha: read-out: Foxtail, Giant damage rating (100=total damage to plant; 0=no damage to plant); for pest or weed control at 62.5 g/ha: 62.5 g ai/ha, 100=total damage to plant, 0=no damage to plant, read-out: Foxtail, Giant damage rating; for pest or weed control at 250 g/ha: 250 g ai/ha
Outline: as §1

[4] = test system: ivy-leaved morning glory (Ipomoea hederacea); experiment: Test G Pre-Emergence Protocol; details: Ipomoea, pre-emergence, 312 h, evaluated after 13 days; for pest or weed control at 15.625 g/ha: 15.625 g ai/ha; for pest or weed control at 15.625 g/ha / pest or weed control at 250 g/ha: read-out: Morningglory, Ivy-leaved damage rating (100=total damage to plant; 0=no damage to plant); for pest or weed control at 62.5 g/ha: 62.5 g ai/ha, 100=total damage to plant, 0=no damage to plant, read-out: Morningglory, Ivy-leaved damage rating; for pest or weed control at 250 g/ha: 250 g ai/ha
Outline: as §1

[5] = test system: redroot pigweed (Amaranthus retroflexus); experiment: Test G Pre-Emergence Protocol; details: Amaranthus retroflexus, pre-emergence, 312 h, evaluated after 13 days; for pest or weed control at 15.625 g/ha: 15.625 g ai/ha; for pest or weed control at 15.625 g/ha / pest or weed control at 250 g/ha: read-out: Pigweed, Redroot damage rating (100=total damage to plant; 0=no damage to plant); for pest or weed control at 62.5 g/ha: 62.5 g ai/ha, 100=total damage to plant, 0=no damage to plant, read-out: Pigweed, Redroot damage rating; for pest or weed control at 250 g/ha: 250 g ai/ha
Outline: as §1

[6] = test system: velvetleaf (Abutilon theophrasti); experiment: Test G Pre-Emergence Protocol; details: Abutilon theophrasti, pre-emergence, 312 h, evaluated after 13 days; for pest or weed control at 15.625 g/ha: 15.625 g ai/ha; for pest or weed control at 15.625 g/ha / pest or weed control at 250 g/ha: read-out: Velvetleaf damage rating (100=total damage to plant; 0=no damage to plant); for pest or weed control at 62.5 g/ha: 62.5 g ai/ha, 100=total damage to plant, 0=no damage to plant, read-out: Velvetleaf damage rating; for pest or weed control at 250 g/ha: 250 g ai/ha
Outline: as §1

[7] = test system: barnyardgrass (Echinochloa crus-galli); experiment: Test G Post-Emergence Protocol; details: Echinochloa crus-galli, post-emergence, 312 h, read-out: Barnyardgrass damage rating; for pest or weed control at 15.625 g/ha: 15.625 g ai/ha, evaluated after 13 days (100=total damage to plant; 0=no damage to plant); for pest or weed control at 62.5 g/ha: 62.5 g ai/ha; for pest or weed control at 62.5 g/ha / pest or weed control at 250 g/ha: evaluated after 13 days, 100=total damage to plant, 0=no damage to plant; for pest or weed control at 250 g/ha: 250 g ai/ha
Outline: (§2)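 Scores run 0 (no damage) to 100 (total damage) and were taken 13 days after spraying. Plants had been raised in pots for 8 days under glasshouse control (24/16 °C, 14 h photoperiod, 65% humidity) and then treated at 15.625, 62.5 or 250 g/ha.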

corn (Zea mays) [8] = experiment: Test G Post-Emergence Protocol; details: Zea mays, post-emergence, 312 h, read-out: Corn damage rating; for plant injury at 15.625 g/ha: 15.625 g ai/ha, evaluated after 13 days (100=total damage to plant; 0=no damage to plant); for plant injury at 62.5 g/ha: 62.5 g ai/ha; for plant injury at 62.5 g/ha / plant injury at 250 g/ha: evaluated after 13 days, 100=total damage to plant, 0=no damage to plant; for plant injury at 250 g/ha: 250 g ai/ha
Outline: as §2

[9] = test system: giant foxtail (Setaria faberi); experiment: Test G Post-Emergence Protocol; details: Setaria faberi, post-emergence, 312 h, read-out: Foxtail, Giant damage rating; for pest or weed control at 15.625 g/ha: 15.625 g ai/ha, evaluated after 13 days (100=total damage to plant; 0=no damage to plant); for pest or weed control at 62.5 g/ha: 62.5 g ai/ha; for pest or weed control at 62.5 g/ha / pest or weed control at 250 g/ha: evaluated after 13 days, 100=total damage to plant, 0=no damage to plant; for pest or weed control at 250 g/ha: 250 g ai/ha
Outline: as §2

[10] = test system: ivy-leaved morning glory (Ipomoea hederacea); experiment: Test G Post-Emergence Protocol; details: Ipomoea, post-emergence, 312 h, read-out: Morningglory, Ivy-leaved damage rating; for pest or weed control at 15.625 g/ha: 15.625 g ai/ha, evaluated after 13 days (100=total damage to plant; 0=no damage to plant); for pest or weed control at 62.5 g/ha: 62.5 g ai/ha; for pest or weed control at 62.5 g/ha / pest or weed control at 250 g/ha: evaluated after 13 days, 100=total damage to plant, 0=no damage to plant; for pest or weed control at 250 g/ha: 250 g ai/ha
Outline: as §2

[11] = test system: redroot pigweed (Amaranthus retroflexus); experiment: Test G Post-Emergence Protocol; details: Amaranthus retroflexus, post-emergence, 312 h, read-out: Pigweed, Redroot damage rating; for pest or weed control at 15.625 g/ha: 15.625 g ai/ha, evaluated after 13 days (100=total damage to plant; 0=no damage to plant); for pest or weed control at 62.5 g/ha: 62.5 g ai/ha; for pest or weed control at 62.5 g/ha / pest or weed control at 250 g/ha: evaluated after 13 days, 100=total damage to plant, 0=no damage to plant; for pest or weed control at 250 g/ha: 250 g ai/ha
Outline: as §2

[12] = test system: velvetleaf (Abutilon theophrasti); experiment: Test G Post-Emergence Protocol; details: Abutilon theophrasti, post-emergence, 312 h, read-out: Velvetleaf damage rating; for pest or weed control at 15.625 g/ha: 15.625 g ai/ha, evaluated after 13 days (100=total damage to plant; 0=no damage to plant); for pest or weed control at 62.5 g/ha: 62.5 g ai/ha; for pest or weed control at 62.5 g/ha / pest or weed control at 250 g/ha: evaluated after 13 days, 100=total damage to plant, 0=no damage to plant; for pest or weed control at 250 g/ha: 250 g ai/ha
Outline: as §2

Structure (SMILES)	pest or weed control at 15.625 g/ha [1]	pest or weed control at 62.5 g/ha [1]	pest or weed control at 250 g/ha [1]	plant injury at 15.625 g/ha (corn (Zea mays) [2])	plant injury at 62.5 g/ha (corn (Zea mays) [2])	plant injury at 250 g/ha (corn (Zea mays) [2])	pest or weed control at 15.625 g/ha [3]	pest or weed control at 62.5 g/ha [3]	pest or weed control at 250 g/ha [3]	pest or weed control at 15.625 g/ha [4]	pest or weed control at 62.5 g/ha [4]	pest or weed control at 250 g/ha [4]	pest or weed control at 15.625 g/ha [5]	pest or weed control at 62.5 g/ha [5]	pest or weed control at 250 g/ha [5]	pest or weed control at 15.625 g/ha [6]	pest or weed control at 62.5 g/ha [6]	pest or weed control at 250 g/ha [6]	pest or weed control at 15.625 g/ha [7]	pest or weed control at 62.5 g/ha [7]	further results
CN1C[C@H](c2cccc(C(F)(F)F)c2)[C@@H](C(=O)Nc2cccnc2F)C1=O (racemic) [Compound 1809]	90%	80%	90%	60%	80%	90%	90%	90%	90%	10%	70%	80%	0%	0%	60%	0%	0%	50%	80%	80%	pest or weed control at 250 g/ha [7]: 80%; plant injury at 15.625 g/ha (corn (Zea mays) [8]): 80%; plant injury at 62.5 g/ha (corn (Zea mays) [8]): 80%; plant injury at 250 g/ha (corn (Zea mays) [8]): 80%; pest or weed control at 15.625 g/ha [9]: 80%; pest or weed control at 62.5 g/ha [9]: 80%; pest or weed control at 250 g/ha [9]: 80%; pest or weed control at 15.625 g/ha [10]: 20%; pest or weed control at 62.5 g/ha [10]: 70%; pest or weed control at 250 g/ha [10]: 70%; pest or weed control at 15.625 g/ha [11]: 20%; pest or weed control at 62.5 g/ha [11]: 20%; pest or weed control at 250 g/ha [11]: 50%; pest or weed control at 15.625 g/ha [12]: 0%; pest or weed control at 62.5 g/ha [12]: 0%; pest or weed control at 250 g/ha [12]: 40%
Cc1c(F)cccc1NC(=O)[C@@H]1C(=O)N(C)C[C@H]1c1ccc2nonc2c1 (racemic) [Compound 1818]	30%	30%	90%	0%	0%	70%	70%	90%	90%	0%	10%	40%	0%	0%	40%	0%	30%	70%	0%	30%	pest or weed control at 250 g/ha [7]: 80%; plant injury at 15.625 g/ha (corn (Zea mays) [8]): 0%; plant injury at 62.5 g/ha (corn (Zea mays) [8]): 30%; plant injury at 250 g/ha (corn (Zea mays) [8]): 60%; pest or weed control at 15.625 g/ha [9]: 40%; pest or weed control at 62.5 g/ha [9]: 80%; pest or weed control at 250 g/ha [9]: 80%; pest or weed control at 15.625 g/ha [10]: 0%; pest or weed control at 62.5 g/ha [10]: 10%; pest or weed control at 250 g/ha [10]: 40%; pest or weed control at 15.625 g/ha [11]: 0%; pest or weed control at 62.5 g/ha [11]: 0%; pest or weed control at 250 g/ha [11]: 0%; pest or weed control at 15.625 g/ha [12]: 0%; pest or weed control at 62.5 g/ha [12]: 0%; pest or weed control at 250 g/ha [12]: 30%

— patent US12077503B2, “Substituted cyclic amides and their use as herbicides” (FMC CORPORATION, priority 2015, dated 2024)
